Values of other authors as cited in PMC6978833 (ACS Central Science, 2019).

Details: N3 of base in TAT / CGC triplets

Row | pKa (N3 protonation) | Compound
1 | ~6.5 | Nc1cc[nH]c(=O)n1 [cytosine]
2 | ~10 | Cc1c[nH]c(=O)[nH]c1=O [thymine]
